Laboratory results taken from ChEMBL document CHEMBL6127034, “Design, synthesis and biological evaluation of a novel PAK1 degrader for the treatment of triple negative breast cancer” (Bioorg Med Chem, 2024).
Active and inactive are the calls of the source. The rule behind the calls is not given here.

Columns and labels:
[1] = target: T1, Serine/threonine-protein kinase PAK 1 (Homo sapiens, UniProt Q13153); test: Induction of thermal stability of PAK1 in human MDA-MB-231 cells at 10 uM under 37 to 67 degreeC heat exposure by CETSA; type: cell-based
[2] = system: MDA-MB-231; test: Induction of apoptosis in human MDA-MB-231 cells assessed as necrotic cells at 2.5 uM incubated for 12 to 48 hrs by Annexin V-FITC/PI staining based flow cytometry (reference value: 0.43 %); type: functional; conditions: time 12-48 hrs
[3] = system: MDA-MB-231; test: Inhibition of cell migration in human MDA-MB-231 cells assessed as decrease in MMP-2 level by Western blot analysis; type: functional, cell-based; conditions: time <= 48.0 hrs, TDE = time-dependent effect
[4] = system: MDA-MB-231; test: Induction of apoptosis in human MDA-MB-231 cells assessed as necrotic cells at 2.5 to 10 uM incubated for 24 hrs by Annexin V-FITC/PI staining based flow cytometry (reference value: 1.08 %); type: functional; conditions: dose 2.5-10 µM
[5] = target: T1, Serine/threonine-protein kinase PAK 1; test: Inhibition of PAK1 phosphorylation at S144 in human MDA-MB-231 cells incubated upto 48 hrs by Western blot analysis; type: cell-based
[6] = system: MDA-MB-231; test: Inhibition of cell migration in human MDA-MB-231 cells upto 10 uM incubated for 24 hrs by transwell assay; type: functional, cell-based
[7] = system: MDA-MB-231; test: Induction of apoptosis in human MDA-MB-231 cells xenografted in BALB/c mouse assessed as increase in Bax level at 20 mg/kg, ip qd for 12 days by Western blot analysis; type: functional, organism-based; conditions: time 12.0 day
[8] = system: MDA-MB-231; test: Inhibition of cell proliferation of human MDA-MB-231 cells at 2.5 uM by crystal violet staining based colony formation assay; type: functional
[9] = target: T1, Serine/threonine-protein kinase PAK 1; test: Binding affinity to CM5 chip-immobilized recombinant PAK1 (unknown origin) by SPR analysis
[10] = system: MDA-MB-231; test: Inhibition of cell migration in human MDA-MB-231 cells at 2.5 uM incubated upto 48 hrs by wound healing assay; type: functional, cell-based
[11] = target: von Hippel-Lindau disease tumor suppressor/Serine/threonine-protein kinase PAK 1 (Homo sapiens, UniProt Q13153+P40337); test: PROTAC activity at VHL/PAK1 in human MDA-MB-231 cells assessed as induction of protein degradation incubated for 48 hrs by Western blot analysis; type: cell-based
[12] = system: MDA-MB-231; test: Induction of apoptosis in human MDA-MB-231 cells assessed as decrease in Bcl-2 level at 2.5 to 10 uM incubated upto 48 hrs by Western blot analysis; type: functional, cell-based; conditions: dose 2.5-10 µM
[13] = system: MDA-MB-231; test: Antitumor activity against human MDA-MB-231 cells xenografted in BALB/c mouse assessed as reduction in tumor weight at 20 mg/kg, ip qd for 12 days; type: functional, organism-based; conditions: time 12.0 day
[14] = system: MDA-MB-231; test: Induction of apoptosis in human MDA-MB-231 cells assessed as early apoptotic cells at 2.5 to 10 uM incubated for 24 hrs by Annexin V-FITC/PI staining based flow cytometry (reference value: 1.70 %); type: functional; conditions: dose 2.5-10 µM
[15] = target: T1, Serine/threonine-protein kinase PAK 1; test: Inhibition of PAK1 in human MDA-MB-231 cells incubated upto 48 hrs by Western blot analysis; type: cell-based
[16] = target: T1, Serine/threonine-protein kinase PAK 1; test: In vivo inhibition of PAK1 phosphorylation at S144 in human MDA-MB-231 cells xenografted in BALB/c mouse at 20 mg/kg, ip qd for 12 days by Western blot analysis; type: functional, organism-based; conditions: time 12.0 day
[17] = Toxicity in BALB/c mouse xenografted with human MDA-MB-231 cells assessed as body weight change at 20 mg/kg, ip qd for 12 days; type: organism-based; conditions: in vivo, 288 h, time 12 day
[18] = system: MDA-MB-231; test: Induction of apoptosis in human MDA-MB-231 cells assessed as late apoptotic cells at 2.5 to 10 uM incubated for 12 hrs by Annexin V-FITC/PI staining based flow cytometry (reference value: 2.46 %); type: functional; conditions: dose 2.5-10 µM
[19] = system: MDA-MB-231; test: Induction of apoptosis in human MDA-MB-231 cells xenografted in BALB/c mouse assessed as increase in PARP level at 20 mg/kg, ip qd for 12 days by Western blot analysis; type: functional, organism-based; conditions: time 12.0 day
[20] = system: MDA-MB-231; test: Induction of apoptosis in human MDA-MB-231 cells assessed as late apoptotic cells at 2.5 to 10 uM incubated for 24 hrs by Annexin V-FITC/PI staining based flow cytometry (reference value: 2.46 %); type: functional; conditions: dose 2.5-10 µM
[21] = target: Serine/threonine-protein kinase PAK 2 (Homo sapiens) (UniProt Q13177); test: Inhibition of PAK2 in human MDA-MB-231 cells incubated upto 48 hrs by Western blot analysis; type: cell-based
[22] = system: MDA-MB-231; test: Induction of apoptosis in human MDA-MB-231 cells assessed as increase in cleaved PARP level at 2.5 to 10 uM incubated upto 48 hrs by Western blot analysis; type: functional, cell-based; conditions: dose 2.5-10 µM
[23] = target: T1, Serine/threonine-protein kinase PAK 1; test: In vivo inhibition of PAK1 in human MDA-MB-231 cells xenografted in BALB/c mouse at 20 mg/kg, ip qd for 12 days by IHC analysis; type: functional, organism-based; conditions: time 12.0 day
[24] = system: MDA-MB-231; test: Antiproliferative activity against human MDA-MB-231 cells assessed as decrease in Ki-67 expression at 5 uM incubated for 24 hrs by immunofluorescence based analysis; type: functional, cell-based
[25] = system: MDA-MB-231; test: Inhibition of cell proliferation of human MDA-MB-231 cells xenografted in BALB/c mouse assessed as reduction in Ki-67 level at 20 mg/kg, ip qd for 12 days by IHC analysis; type: functional, organism-based; conditions: time 12.0 day
[26] = system: MDA-MB-231; test: Induction of apoptosis in human MDA-MB-231 cells xenografted in BALB/c mouse assessed as increase in E-Cadherin level at 20 mg/kg, ip qd for 12 days by Western blot analysis; type: functional, organism-based; conditions: time 12.0 day
[27] = system: MDA-MB-231; test: Induction of apoptosis in human MDA-MB-231 cells assessed as necrotic cells at 2.5 to 10 uM incubated for 12 hrs by Annexin V-FITC/PI staining based flow cytometry (reference value: 1.08 %); type: functional; conditions: dose 2.5-10 µM
[28] = target: T1, Serine/threonine-protein kinase PAK 1; test: Binding affinity to CM5 chip-immobilized recombinant PAK1 (unknown origin) assessed as dissociation constant by SPR analysis
[29] = system: MDA-MB-231; test: Induction of apoptosis in human MDA-MB-231 cells assessed as late apoptotic cells at 2.5 to 10 uM incubated for 48 hrs by Annexin V-FITC/PI staining based flow cytometry (reference value: 2.46 %); type: functional; conditions: dose 2.5-10 µM
[30] = system: MDA-MB-231; test: Induction of apoptosis in human MDA-MB-231 cells assessed as viable cells at 2.5 to 10 uM incubated for 24 hrs by Annexin V-FITC/PI staining based flow cytometry (reference value: 94.8 %); type: functional; conditions: dose 2.5-10 µM
[31] = system: MDA-MB-231; test: Induction of apoptosis in human MDA-MB-231 cells assessed as viable cells at 2.5 uM incubated for 12 to 48 hrs by Annexin V-FITC/PI staining based flow cytometry (reference value: 97.0 %); type: functional; conditions: time 12-48 hrs, read-out: Activity
[32] = system: MDA-MB-231; test: Induction of apoptosis in human MDA-MB-231 cells assessed as increase in cleaved caspase-9 level at 2.5 to 10 uM incubated upto 48 hrs by Western blot analysis; type: functional, cell-based; conditions: dose 2.5-10 µM
[33] = system: MDA-MB-231; test: Induction of apoptosis in human MDA-MB-231 cells assessed as increase in Bax level at 2.5 to 10 uM incubated upto 48 hrs by Western blot analysis; type: functional, cell-based; conditions: dose 2.5-10 µM
[34] = system: MDA-MB-231; test: Induction of apoptosis in human MDA-MB-231 cells assessed as increase in cleaved caspase-3 level at 2.5 to 10 uM incubated upto 48 hrs by Western blot analysis; type: functional, cell-based; conditions: dose 2.5-10 µM

T1 sequence (Q13153 whole entry): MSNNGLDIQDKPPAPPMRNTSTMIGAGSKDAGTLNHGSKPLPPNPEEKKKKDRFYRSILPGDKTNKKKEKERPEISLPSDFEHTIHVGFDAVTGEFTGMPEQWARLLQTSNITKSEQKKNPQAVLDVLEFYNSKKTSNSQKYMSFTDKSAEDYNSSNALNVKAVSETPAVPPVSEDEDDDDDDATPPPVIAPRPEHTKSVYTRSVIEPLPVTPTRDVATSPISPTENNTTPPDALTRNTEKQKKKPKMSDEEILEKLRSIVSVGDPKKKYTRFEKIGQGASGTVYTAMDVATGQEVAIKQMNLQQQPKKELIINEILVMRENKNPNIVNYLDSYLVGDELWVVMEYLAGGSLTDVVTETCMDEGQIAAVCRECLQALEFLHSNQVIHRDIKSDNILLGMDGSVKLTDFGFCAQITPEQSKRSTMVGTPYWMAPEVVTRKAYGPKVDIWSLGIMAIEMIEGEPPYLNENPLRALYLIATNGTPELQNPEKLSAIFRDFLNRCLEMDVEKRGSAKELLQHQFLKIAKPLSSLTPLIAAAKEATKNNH
Serine/threonine-protein kinase PAK 2 (Homo sapiens), sequence (Q13177 whole entry): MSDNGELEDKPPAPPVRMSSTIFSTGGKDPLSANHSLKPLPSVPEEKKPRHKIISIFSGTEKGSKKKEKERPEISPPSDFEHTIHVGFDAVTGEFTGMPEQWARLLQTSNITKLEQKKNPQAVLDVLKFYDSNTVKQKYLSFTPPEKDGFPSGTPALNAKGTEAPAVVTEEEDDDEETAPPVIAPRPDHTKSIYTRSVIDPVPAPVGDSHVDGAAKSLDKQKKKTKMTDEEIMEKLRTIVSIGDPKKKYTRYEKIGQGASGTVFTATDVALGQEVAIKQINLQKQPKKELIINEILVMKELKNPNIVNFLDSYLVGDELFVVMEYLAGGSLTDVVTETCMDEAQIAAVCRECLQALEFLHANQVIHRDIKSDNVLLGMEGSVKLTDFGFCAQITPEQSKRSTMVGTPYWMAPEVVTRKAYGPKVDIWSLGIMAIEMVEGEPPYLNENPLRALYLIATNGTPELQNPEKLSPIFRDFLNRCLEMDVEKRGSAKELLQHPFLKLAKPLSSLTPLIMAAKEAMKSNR

Activity [1]: Active | inhibition [5]: Active | Activity [9]: Dose-Dependent Effect | DC50 [11]: 0.48 µM | Activity ([11]; dose <= 200.0 µM): Dose-Dependent Effect | inhibition [15]: Active | inhibition [16]: Active | inhibition [21]: inactive | inhibition [23]: Active | Kd [28]: 16.2 µM
SMILES: Cc1ncsc1-c1ccc([C@H](C)NC(=O)[C@@H]2C[C@@H](O)CN2C(=O)[C@@H](NC(=O)CCc2cn(CCCCCCCn3c(=O)c(-c4ccc(Cl)cc4Cl)cc4cnc(NC5CC5)nc43)nn2)C(C)(C)C)cc1
Activity [2]: 1.4% | inhibition [3]: Tde | Activity [4]: 4.92% | inhibition [6]: Active | Activity [7]: Active | inhibition [8]: Active | inhibition [10]: Active | Activity [12]: Active | Activity [13]: Active | Activity [14]: 11.7% | Activity [17]: Non-Toxic | Activity [18]: 5.67% | Activity [19]: Active | Activity [20]: 6.74% | Activity [22]: Active | Activity [24]: Active | inhibition [25]: Active | Activity [26]: Active | Activity [27]: 3.7% | Activity [29]: 4.94% | Activity [30]: 76.6% | viability at 2.5 µM [31]: 84.8% | Activity [32]: Active | Activity [33]: Active | Activity [34]: Active
